Data as given in patent US20230116972A1, “CD38 MODULATORS AND METHODS OF USE THEREOF” (Cytokinetics, Inc., priority 2021, published 2023).

Legend:
[1] = target: T1, endogenous CD38 in HL60 cells (Homo sapiens, UniProt P28907); test: cellular CD38 assay in HL60 cells (cellular NAD levels); type: cell-based; conditions: all-trans retinoic acid, 24 hours, read-out: hCD38 HL60 ATRA NAD Cell Diaphorase IC50
T1 construct: endogenous in cells; host or cells: HL60 (leukemic cells, treated with all-trans retinoic acid)
T1 sequence (P28907 1-300): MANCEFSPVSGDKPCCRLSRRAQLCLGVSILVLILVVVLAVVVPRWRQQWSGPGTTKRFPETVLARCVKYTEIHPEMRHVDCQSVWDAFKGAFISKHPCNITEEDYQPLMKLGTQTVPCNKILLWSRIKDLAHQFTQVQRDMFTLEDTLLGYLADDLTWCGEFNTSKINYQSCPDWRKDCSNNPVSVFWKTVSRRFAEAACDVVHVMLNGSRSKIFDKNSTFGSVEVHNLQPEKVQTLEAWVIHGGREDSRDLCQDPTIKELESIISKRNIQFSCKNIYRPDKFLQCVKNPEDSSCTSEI
Summary of the method: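 Endogenous CD38 inhibition is inferred from NAD levels in HL60 cells after 24 h compound exposure at 20000 cells per well. A lytic cycling readout (0.2 U/mL diaphorase, 0.8 U/mL alcohol dehydrogenase, resazurin, FMN, ethanol, 0.2% Triton X-100, Tris/EDTA pH 8.4) ran 60 min at ambient temperature. Resorufin fluorescence was read at 540/590 nm.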

mouse CD38 = target: T2, mouse CD38 (Mus musculus, UniProt P56528); test: mouse recombinant CD38 enzyme assay (hydrolysis of NAD+); type: biochemical; conditions: read-out: mCD38 BioChem IC50
T2 sequence (P56528 1-304): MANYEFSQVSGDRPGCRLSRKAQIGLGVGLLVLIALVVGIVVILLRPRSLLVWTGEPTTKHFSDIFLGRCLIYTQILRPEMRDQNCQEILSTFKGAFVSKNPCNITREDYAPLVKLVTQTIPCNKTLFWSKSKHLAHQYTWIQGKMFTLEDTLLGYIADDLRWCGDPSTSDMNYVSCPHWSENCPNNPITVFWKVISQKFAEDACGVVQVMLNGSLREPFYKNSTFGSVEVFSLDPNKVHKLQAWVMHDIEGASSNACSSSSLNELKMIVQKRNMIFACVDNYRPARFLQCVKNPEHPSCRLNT
Summary of the method: (§1)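 Steps: compound and recombinant enzyme are mixed, NAD+ is added, and the reaction runs 60 min at room temperature. An ADH/ethanol mix containing a CD38 inhibitor halts hydrolysis and forms NADH. After NaOH quench, resazurin plus diaphorase produce fluorescent resorufin, read at 540/590 nm.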

human CD38 = target: T3, human CD38 (Homo sapiens, UniProt P28907); test: human recombinant CD38 enzyme assay (hydrolysis of NAD+); type: biochemical; conditions: human recombinant CD38, 0.4 nM enzyme, 62.5 μM NAD+; read-out: hCD38 BioChem IC50
T3 sequence (P28907 1-300): T1 sequence (P28907 1-300)
Summary of the method: as §1

Row | IC50 [1] [µM] | IC50 (mouse CD38) [µM] | IC50 (human CD38) [µM] | SMILES
1 | 1.01 | 0.001 | 0.01 | Cc1cc(C(=O)N[C@H]2CC[C@H](C(F)F)CC2)nc(-c2cncn2C)n1 [Compound 122, N-((1r,4r)-4-(difluoromethyl)cyclohexyl)-6-methyl-2-(1-methyl-1H-imidazol-5-yl)pyrimidine-4-carboxamide]
2 | 1.13 | 0.002 | 0.01 | Cc1cc(C(=O)N[C@H]2CC[C@H](C(F)F)CC2)nc(-n2ccnc2)n1 [Compound 120, N-((1r,4r)-4-(difluoromethyl)cyclohexyl)-2-(1H-imidazol-1-yl)-6-methylpyrimidine-4-carboxamide]
3 | 2.58 | 0.001 | 0.0103 | Cn1cncc1-c1nc(C(=O)N[C@H]2CC[C@H](O)CC2)cc(C2CCC(F)(F)CC2)n1 [Compound 288, 6-(4,4-difluorocyclohexyl)-N-((1r,4r)-4-hydroxycyclohexyl)-2-(1-methyl-1H-imidazol-5-yl)pyrimidine-4-carboxamide]
4 | 4.55 | 0.036 | 0.187 | CO[C@@H]1CC[C@@H](NC(=O)c2cccc(-n3ccnc3)n2)C1 [Compound 57, 6-(1H-imidazol-1-yl)-N-(3-methoxycyclopentyl)picolinamide]
5 | 2.42 | 0.007 | 0.034 | O=C(N[C@H]1CC[C@H](C(F)F)CC1)c1cccc(-n2ccnc2)n1 [Compound 64, N-(4-(difluoromethyl)cyclohexyl)-6-(1H-imidazol-1-yl)picolinamide]
6 | 2.07 | 0.0107 | 0.0079 | Cn1cncc1-c1nc(C(=O)N[C@H]2C[C@](O)(c3ccccc3)C2)cc(C2CCOCC2)n1 [Compound 277, N-((1s,3s)-3-hydroxy-3-phenylcyclobutyl)-2-(1-methyl-1H-imidazol-5-yl)-6-(tetrahydro-2H-pyran-4-yl)pyrimidine-4-carboxamide]
7 | 1.33 | 0.0013 | 0.0041 | Cn1cncc1-c1nc(C(=O)N[C@H]2CC[C@H](OC(F)F)CC2)cc(C2CCOCC2)n1 [Compound 281, N-((1r,4r)-4-(difluoromethoxy)cyclohexyl)-2-(1-methyl-1H-imidazol-5-yl)-6-(tetrahydro-2H-pyran-4-yl)pyrimidine-4-carboxamide]
8 | 1.47 | 0.0091 | 0.0152 | Cn1cncc1-c1ccnc(C(=O)N[C@H]2C[C@H](c3ccccc3)C2)n1 [Compound 213, 4-(1-methyl-1H-imidazol-5-yl)-N-((1r,3r)-3-phenylcyclobutyl)pyrimidine-2-carboxamide]
9 | 15.7 | 0.205 | 0.479 | O=C(N[C@H]1CC[C@@H](O)CC1)c1cccc(-n2ccnc2)n1 [Compound 31, N-(4-hydroxycyclohexyl)-6-(1H-imidazol-1-yl)picolinamide]
10 | 3.02 | 0.005 | 0.037 | CC(C)(O)[C@H]1CC[C@H](NC(=O)c2cccc(-n3ccnc3)n2)CC1 [Compound 134, N-((1r,4r)-4-(2-Hydroxypropan-2-yl)cyclohexyl)-6-(1H-imidazol-1-yl)picolinamide]
11 | 2.35 | 0.001 | 0.013 | Cn1cncc1-c1nc(C(=O)N[C@H]2CC[C@H](C(F)F)CC2)cc(C(F)(F)F)n1 [Compound 152, N-((1r,4r)-4-(difluoromethyl)cyclohexyl)-2-(1-methyl-1H-imidazol-5-yl)-6-(trifluoromethyl)pyrimidine-4-carboxamide]
12 | 3.01 | 0.025 | 0.073 | O=C(N[C@H]1CC[C@H](C(F)F)CC1)c1cc(C(F)(F)F)nc(-n2ccnc2)n1 [Compound 138, N-((1r,4r)-4-(difluoromethyl)cyclohexyl)-2-(1H-imidazol-1-yl)-6-(trifluoromethyl)pyrimidine-4-carboxamide]
13 | 0.522 | 0.01 | 0.005 | O=C(Nc1ccc(C(F)(F)F)nc1)c1cncc(-n2ccnc2)n1 [Compound 55, 6-(1H-imidazol-1-yl)-N-(6-(trifluoromethyl)pyridin-3-yl)pyrazine-2-carboxamide]
14 | 0.214 | 0.0016 | 0.002 | Cc1cc(-n2ccnc2)nc(C(=O)Nc2ccc(C(F)F)nc2)n1 [Compound 215, N-(6-(difluoromethyl)pyridin-3-yl)-4-(1H-imidazol-1-yl)-6-methylpyrimidine-2-carboxamide]
15 | 0.882 | 0.0007 | 0.0031 | Cn1cncc1-c1nc(C(=O)Nc2ccc(C(F)F)nc2)cc(C2CCC(F)(F)CC2)n1 [Compound 287, 6-(4,4-difluorocyclohexyl)-N-(6-(difluoromethyl)pyridin-3-yl)-2-(1-methyl-1H-imidazol-5-yl)pyrimidine-4-carboxamide]
16 | 3.37 | 0.029 | 0.088 | O=C(NC1CCCOC1)c1cccc(-n2ccnc2)n1 (stereo not drawn) [Compound 49, 6-(1H-imidazol-1-yl)-N-(tetrahydro-2H-pyran-3-yl)picolinamide]
17 | 8.81 | 0.219 | 0.194 | O=C(Nc1ccc(C(F)(F)F)nc1)c1ccnc(-c2cncs2)n1 [Compound 86, 2-(thiazol-5-yl)-N-(6-(trifluoromethyl)pyridin-3-yl)pyrimidine-4-carboxamide]
18 | 0.264 | 0.001 | 0.003 | Cc1cc(C(=O)Nc2cccnc2)nc(-n2ccnc2)c1 [Compound 32, 6-(1H-imidazol-1-yl)-4-methyl-N-(pyridin-3-yl)picolinamide]
19 | 2.98 | 0.001 | 0.019 | COCCO[C@H]1CC[C@H](NC(=O)c2cc(C(F)(F)F)nc(-c3cncn3C)n2)CC1 [Compound 165, N-((1r,4r)-4-(2-methoxyethoxy)cyclohexyl)-2-(1-methyl-1H-imidazol-5-yl)-6-(trifluoromethyl)pyrimidine-4-carboxamide]
20 | 1.62 | 0.03 | 0.146 | O=C(NC1CC2(C1)CC(F)(F)C2)c1cncc(-n2ccnc2)n1 [Compound 103, N-(6,6-difluorospiro[3.3]heptan-2-yl)-6-(1H-imidazol-1-yl)pyrazine-2-carboxamide]
21 | 1.4 | 0.001 | 0.017 | Cc1cc(C(=O)NC2CC3(C2)CC(F)(F)C3)nc(-c2cncn2C)n1 [Compound 124, N-(6,6-difluorospiro[3.3]heptan-2-yl)-6-methyl-2-(1-methyl-1H-imidazol-5-yl)pyrimidine-4-carboxamide]
22 | 1.87 | 0.0272 | 0.0464 | O=C(N[C@H]1C[C@H](c2ccccc2F)C1)c1nccc(-n2ccnc2)n1 [Compound 236, N-((1r,3r)-3-(2-fluorophenyl)cyclobutyl)-4-(1H-imidazol-1-yl)pyrimidine-2-carboxamide]
23 | 1.08 | 0.0038 | 0.007 | COc1cc(C(=O)Nc2ccc(C(F)F)nc2)nc(-c2cncn2C)c1 [Compound 225, N-(6-(difluoromethyl)pyridin-3-yl)-4-methoxy-6-(1-methyl-1H-imidazol-5-yl)picolinamide]
24 | 7.49 | 0.032 | 0.2 | COCCO[C@H]1CC[C@H](NC(=O)c2nc(-n3ccnc3)ccc2F)CC1 [Compound 43, 3-fluoro-6-(1H-imidazol-1-yl)-N-(4-(2-methoxyethoxy)cyclohexyl)picolinamide]
25 | 3.69 | 0.0072 | 0.0248 | CO[C@H]1CC[C@H](NC(=O)c2nc(C)cc(-n3ccnc3)n2)CC1 [Compound 207, 4-(1H-imidazol-1-yl)-N-((1r,4r)-4-methoxycyclohexyl)-6-methylpyrimidine-2-carboxamide]
26 | 4.88 | 0.184 | 0.255 | Cn1cncc1-c1ccnc(C(=O)N[C@H]2CC[C@](O)(c3ccccc3)CC2)n1 [Compound 252, N-((1s,4s)-4-hydroxy-4-phenylcyclohexyl)-4-(1-methyl-1H-imidazol-5-yl)pyrimidine-2-carboxamide]
27 | 1.01 | 0.0058 | 0.0043 | Cn1cncc1-c1ccnc(C(=O)Nc2ccc(C(C)(C)O)cc2)n1 [Compound 358, N-(4-(2-hydroxypropan-2-yl)phenyl)-4-(1-methyl-1H-imidazol-5-yl)pyrimidine-2-carboxamide]
